Values joined by “and” are separate entries in the source; they are usually repeats but may differ in a detail not shown here. Equal entries are not always repeated.
Columns and labels:
[1] = test system: field grown ‘Julia Child’ roses; assay: Vase life / bloom stage of cut field grown roses after pre-harvest foliar treatment; format: in vivo; design: key to Bloom Stage Day 1 / Bloom Stage Day 3: a: Green Bud; b: Full Bud; c: Flower in early bloom stage; d: Flower in fully open stage; Flower in late bloom stage; Fully wilted flower; Flower drooped before fully opening
Procedure: Foliage of field grown ‘Julia Child’ roses were sprayed to the point of drip 24 hours before harvesting with an aqueous solution comprising 5.0 mM MDHJ, 0.125% Triton® X-100, and 0.5% canola oil. On average, about 100 ml of the formulation was applied per plant, comprising an approximate volume of 130 μl (or 500 μM) MDHJ. Stems of flowers in the bud to early-bloom stage were cut in the field. Stems received a fresh cut while submerged under water before transferring to a water-filled vase. The bloom stage of 4-5 flowers was analyzed on day 1 and day 3, as compared with untreated roses that were otherwise similarly handled. FIG. 1 illustrates the full vases of flowers for the treated and untreated roses on day 1 and day 3, respectively. FIG. 2 illustrates individual roses on day 1 and day 3.

Parade Roses® = assay: Flower development on intact flowering rose plants after foliar treatment; format: in vivo; design: key to Bloom Stage Day 1 / Bloom Stage Day 12: 1: Early bloom; 2: Fully Open; 3: Wilted
Procedure: Parade Roses® with flowers in the bud to early bloom stage were treated to the point of drip on day 1 and day 2 with an aqueous solution comprising either (1) 0.125% Triton® X-100 and 0.5% canola oil as a control treatment; or (2) 1.5 mM MDHJ, 0.125% Triton® X-100, and 0.5% canola oil. There were four plants per treatment. Approximately 10 ml of each treatment was applied to each plant, comprising approximately 3.9 μL (15 μM MDHJ). Rate of flower development of individual flowers was monitored and compared between treatments. On day 1 and day 12, individual flowers were rated according to their stage of blooming. FIG. 3 is a photographic comparison of treated and untreated plants at day 1 and day 12.

[2] = plants treated before harvesting, vs untreated

CCCCCC1C(=O)CCC1CC(=O)OC (stereo not shown) [MDHJ, methyl dihydrojasmonate]
Bloom Stage Day 1 ([1]; individual cut flowers, day 1, foliage sprayed 24 hours before harvesting with 5.0 mM MDHJ, 0.125% Triton X-100, 0.5% canola oil, listed as Treated): d and c and b (2×)
Bloom Stage Day 3 ([1]; individual cut flowers, day 3, foliage sprayed 24 hours before harvesting with 5.0 mM MDHJ, 0.125% Triton X-100, 0.5% canola oil): d
Ability of buds to open fully into flowers ([1]; plants treated before harvesting buds and early flowers, vs untreated): improving the ability of the buds to open fully into flowers
Bent neck of stems [1, 2]: prevents stems from exhibiting bent neck
Flower wilting [1, 2]: delays flower wilting
Average Bloom Stage Day 1 (Parade Roses®; average of 8 flowers, day 1, scale 1 early bloom, 2 fully open, 3 wilted, 1.5 mM MDHJ formulation): 1.4
Average Bloom Stage Day 12 (Parade Roses®; average of 8 flowers, day 12, scale 1 early bloom, 2 fully open, 3 wilted, 1.5 mM MDHJ formulation): 1.4
Flower development on intact plants (Parade Roses®; formulation containing MDHJ vs control formulation without MDHJ): prolonged flower development
Bloom Stage Day 1 (Parade Roses®; individual flowers on intact plants, day 1, 1.5 mM MDHJ, 0.125% Triton X-100, 0.5% canola oil applied day 1 and day 2, listed as Treatment 2): 2 (3×) and 1 (5×)
Bloom Stage Day 12 (Parade Roses®; individual flowers on intact plants, day 12, 1.5 mM MDHJ, 0.125% Triton X-100, 0.5% canola oil applied day 1 and day 2, listed as Treatment 2): 2 (3×) and 1 (5×)
